Laboratory results taken from paper PMC7419507, “In vitro Cas9-assisted editing of modular polyketide synthase genes to produce desired natural product derivatives” (Nature Communications, 2020).
Where “and” joins values, the source holds several entries; their conditions need not be identical. Equal values may be shown once.

Legend:
FKBP12 and mTOR = target: T1, FKBP12 and mTOR (Homo sapiens, UniProt P42345+P62942); assay: Fluoppi analysis: induction of FKBP12-mTOR complex formation in transfected HeLa cells; format: cell-based; settings: raw data, one replicate per line
T1 construct: host or cells: HeLa cells
Summary of the method: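 Complex formation read as fluorescent foci: foci intensity over total per-cell intensity, imaged (×20, 9 fields/well) after fixation and Hoechst stain, giving EC50. Cells: HeLa transiently expressing hAG-mTOR and Ash-FKBP12, exposed to compound concentrations for 1 h at 37 °C.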

[1] = system: human ovarian adenocarcinoma SKOV-3 cells; assay: Cytotoxicity assay (CellTiter-Glo, 72 h), SKOV-3; format: cell-based; settings: raw replicate data
Summary of the method: (§1)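 Cells were seeded at 1000 cells/well and allowed 4 h at 37 °C, 5% CO2 before 2-fold compound dilutions in DMSO were added (0.5% final DMSO). After 72 h exposure, viability was read by CellTiter-Glo luminescence.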

[2] = Cytotoxicity assay (CellTiter-Glo, 72 h), SKOV-3; format: cell-based, human; settings: human, raw replicate data, read-out: SKOV3 viability (%)
Summary of the method: as §1

[3] = system: Jurkat, SKOV-3 and MESO-1 cells; assay: Cytotoxicity assay, statements for all tested cell lines together; format: cell-based; settings: Jurkat, SKOV-3 and MESO-1 cells, 72 h
Summary of the method: as §1

T1 sequence (P42345 2025-2114 limits assumed): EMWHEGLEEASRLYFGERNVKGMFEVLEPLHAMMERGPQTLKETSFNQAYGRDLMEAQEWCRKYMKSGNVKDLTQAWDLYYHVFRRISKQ
T1 sequence (P62942 whole entry): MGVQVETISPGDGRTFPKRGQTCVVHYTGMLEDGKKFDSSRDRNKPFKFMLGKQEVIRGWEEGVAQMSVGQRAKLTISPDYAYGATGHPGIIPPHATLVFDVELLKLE

**Q.** Which results are given for COC1CC2CCC(C)C(O)(O2)C(=O)C(=O)N2CCCCC2C(=O)OC(C(C)CC2CCC(O)C(OC)C2)CC(=O)C(C)C=C(C)C(O)CC(=O)C(C)C=C(C)C=CC=CC=C1C (stereo not shown) [Compound 14]?
**A.** Foci intensity (FKBP12 and mTOR; conc 0.0488281 uM): 0.01856 and 0.02257 and 0.02853; Foci intensity (FKBP12 and mTOR; conc 0.0976562 uM): 0.02191 and 0.01721 and 0.01479; Foci intensity (FKBP12 and mTOR; conc 0.195312 uM): 0.01663 and 0.02497 and 0.01905; Foci intensity (FKBP12 and mTOR; conc 0.390625 uM): 0.01986 and 0.02708 and 0.02914; Foci intensity (FKBP12 and mTOR; conc 0.78125 uM): 0.02045 and 0.02304 and 0.03319; Foci intensity (FKBP12 and mTOR; conc 1.5625 uM): 0.09025 and 0.08153 and 0.07652; Foci intensity (FKBP12 and mTOR; conc 3.125 uM): 0.2188 and 0.1724 and 0.1954; Foci intensity (FKBP12 and mTOR; conc 6.25 uM): 0.2549 and 0.2832 and 0.2819; Foci intensity (FKBP12 and mTOR; conc 12.5 uM): 0.2175 and 0.1877 and 0.2688; Foci intensity (FKBP12 and mTOR; conc 25 uM): 0.2553 and 0.272 and 0.2457; Foci intensity (FKBP12 and mTOR; conc 50 uM): 0.2721 and 0.2164 and 0.2636; SKOV3 viability (%) ([1]; conc 9.53674e-5 uM): 98.4% and 95.5%; SKOV3 viability (%) ([1]; conc 0.000190735 uM): 101.1% and 93.2%; SKOV3 viability (%) ([1]; conc 0.00038147 uM): 101.8% and 98.2%; SKOV3 viability (%) ([1]; conc 0.000762939 uM): 98.4% and 94.2%; SKOV3 viability (%) ([1]; conc 0.00152588 uM): 99.8% and 104.2%; SKOV3 viability (%) ([1]; conc 0.00305176 uM): 98.8% and 92.1%; SKOV3 viability (%) ([1]; conc 0.00610352 uM): 101.4% and 103.8%; SKOV3 viability (%) ([1]; conc 0.012207 uM): 94.0% and 97.4%; SKOV3 viability (%) ([1]; conc 0.0244141 uM): 103.2% and 105.4%; SKOV3 viability (%) ([1]; conc 0.0488281 uM): 98.2% and 100.0%; SKOV3 viability (%) ([1]; conc 0.0976562 uM): 101.8% and 110.3%; SKOV3 viability (%) ([1]; conc 0.195312 uM): 98.6% and 95.1%; SKOV3 viability (%) ([1]; conc 0.390625 uM): 104.4%; SKOV3 viability (%) ([1]; conc 0.78125 uM): 86.0% and 88.0%; SKOV3 viability (%) ([1]; conc 1.5625 uM): 92.8% and 89.9%; SKOV3 viability (%) ([1]; conc 3.125 uM): 80.6% and 76.1%; SKOV3 viability (%) ([1]; conc 6.25 uM): 79.5%; SKOV3 viability (%) ([1]; conc 12.5 uM): 67.2% and 69.9%; SKOV3 viability (%) ([1]; conc 25 uM): 77.7% and 72.7%; SKOV3 viability (%) ([1]; conc 50 uM): 51.8% and 56.0%; viability at 72 h, 9.53674e-05 uM ([2]; SKOV-3 cells (ovarian adenocarcinoma), conc 9.53674e-5 uM): 105%; viability at 72 h, 0.000190735 uM ([2]; SKOV-3 cells (ovarian adenocarcinoma), conc 0.000190735 uM): 103%; viability at 72 h, 0.00038147 uM ([2]; SKOV-3 cells (ovarian adenocarcinoma), conc 0.00038147 uM): 104%; viability at 72 h, 0.000762939 uM ([2]; SKOV-3 cells (ovarian adenocarcinoma), conc 0.000762939 uM): 102%; viability at 72 h, 0.00152588 uM ([2]; SKOV-3 cells (ovarian adenocarcinoma), conc 0.00152588 uM): 97.9%; viability at 72 h, 0.00305176 uM ([2]; SKOV-3 cells (ovarian adenocarcinoma), conc 0.00305176 uM): 98%; viability at 72 h, 0.00610352 uM ([2]; SKOV-3 cells (ovarian adenocarcinoma), conc 0.00610352 uM): 103%; viability at 72 h, 0.012207 uM ([2]; SKOV-3 cells (ovarian adenocarcinoma), conc 0.012207 uM): 97.1%; viability at 72 h, 0.0244141 uM ([2]; SKOV-3 cells (ovarian adenocarcinoma), conc 0.0244141 uM): 106%; viability at 72 h, 0.0488281 uM ([2]; SKOV-3 cells (ovarian adenocarcinoma), conc 0.0488281 uM): 100%; viability at 72 h, 0.0976562 uM ([2]; SKOV-3 cells (ovarian adenocarcinoma), conc 0.0976562 uM): 100%; viability at 72 h, 0.195312 uM ([2]; SKOV-3 cells (ovarian adenocarcinoma), conc 0.195312 uM): 97.3%; viability at 72 h, 0.390625 uM ([2]; SKOV-3 cells (ovarian adenocarcinoma), conc 0.390625 uM): 99.4%; viability at 72 h, 12.5 uM ([2]; SKOV-3 cells (ovarian adenocarcinoma), conc 12.5 uM): 81.9%; viability at 72 h, 25 uM ([2]; SKOV-3 cells (ovarian adenocarcinoma), conc 25 uM): 73.7%; viability at 72 h, 50 uM ([2]; SKOV-3 cells (ovarian adenocarcinoma), conc 50 uM): 60.7%; viability at 72 h, 0.78125 uM ([2]; SKOV-3 ovarian adenocarcinoma cells, conc 0.78125 uM): 93.1%; viability at 72 h, 1.5625 uM ([2]; SKOV-3 ovarian adenocarcinoma cells, conc 1.5625 uM): 91.2%; viability at 72 h, 3.125 uM ([2]; SKOV-3 ovarian adenocarcinoma cells, conc 3.125 uM): 84.5%; viability at 72 h, 6.25 uM ([2]; SKOV-3 ovarian adenocarcinoma cells, conc 6.25 uM): 78.2%; Effect on cell viability, in words [3]: slightly suppressed the cell viabilities
